In patent publication US20220267271A1, “WNT ACTIVATORS AND METHODS OF USE” (MAYO FOUNDATION FOR MEDICAL EDUCATION AND RESEARCH, priority 2019, published 2022):

Columns and labels:
LRP6 = experiment: Endogenous LRP6 expression in N2a cells by Western blotting; format: cell-based; conditions: 0.8 and 1.6 μM, 24 h
Description: (A) HT1080 cells stably transduced with human LRP6 with HA tag were treated with niciosamide (1 μM) and other compounds as noted (1 μM) for 24 hr. The levels of HA-LRP6 were examined by Western blots with anti-HA antibody. All samples were also probed with anti-actin antibody to verify equal loading. This experiment is a representative of two such experiments performed with similar data. (B) N2a cells were treated with 1015 and 1011 at the indicated concentrations for 24 h. The expression levels of LRP6, β-catenin and actin were examined by Western blotting. This experiment is a representative of three such experiments performed with similar data. (C) HEK293 cells were transfected with LRP6 siRNAs, and after 8 h incubation were further transfected with Super8XTOPFlash construct and β galactosidase-expressing vector. […] The luciferase activity was then measured and normalized to β-galactosidase activity. […]
Western blotting: Cells in 6-well plates were lysed in 0.5 ml of lysis buffer (phosphate-buffered saline containing 1% Triton X-100, 1× Proteinase inhibitor cocktail Complete, and 1 mM PMSF) at 4° C. for 15 min. Equal quantities of protein were subjected to SDS-PAGE under reducing conditions. […] The immunoreactive proteins were then detected using the ECL system or the Odyssey infrared imaging system (LI-COR). […]

S. typhimurium TA98 = experiment: Ames test, bacterial reverse mutation assay, TA98; design: species or system Salmonella typhimuium; conditions: 1011 and 1015 at 400 μM, mean ± SD, n = 3
Description: (§1) Ames test: According to the OECD Guidelines For Testing Of Chemicals, experiments with the tested agents, positive and negative controls, were conducted in triplicates on 6 tester strains, S. typhimurium: TA98, TA100, TA1535, TA1537 and E. coli: wp2[pKM101]+wp2 uvrA mixed 1:2. Dimethyl sulfoxide (DMSO) was used as the vehicle control for all tester strains in mutagenicity assay with and without metabolic activation. Compounds with known mutagenic activity were used as the positive controls in mutagenicity assay without metabolic activation: 2-nitrofluorene (0.1 μg/plate) for TA98, 4-nitroquinoline N-oxide (0.1 μg/plate) for TA100, sodium azide (0.2 μg/plate) for TA1535, 9-aminoacridine (7.5 μg/plate) for TA1537, and 4-nitroquinoline N-oxide (0.1 μg/plate) for E. coli. 2-Aminoantracene in final concentration 0.4 μg/ml was used as the positive control (the solution of 2-aminoantracene in DMSO was prepared immediately before experiment) in test with metabolic activation. For each experiment tester strain cultures were grown overnight in Oxoid nutrient broth #2 at 37° C. with shaking at 235 rpm to a density of 1-2×10^9 colony forming units/ml (OD600˜1.5). The S9 mix, which is consist of 9000 g supernatant fraction of rat liver homogenate (S9 fraction), was prepared immediately prior to its use in experimental procedure.
(§2) The tester strain (10 μl of overnight culture) was mixed with the test agent (10 μl of the DMSO stock) and GM liquid medium (30 μl) or S9 mix (30 μl). Then, 200 μl of molten top agar supplemented with histidine/biotin (final concentration 0.05 mM) for S. typhimurium and tryptophan (final concentration 0.025 mM) for E. coli were added to the tube (top agar was kept at 44° C. to prevent hardening). The mixed suspension was poured onto the surface of a GM agar plate (2.0 ml of GM agar per plate). After the top agar solidified, the plates were inverted and incubated at 37° C. for 48 hours. The results were expressed as number of revertant colonies per plate. The final concentrations of the test compounds in the mutagenicity assay with all tester strains in both the presence and absence of S9 mix were 400 μM. All concentrations were tested in triplicates.

S. typhimurium TA1537 = experiment: Ames test, bacterial reverse mutation assay, TA1537; design: species or system Salmonella typhimuium; conditions: 1011 and 1015 at 400 μM, mean ± SD, n = 3
Description: as §1, §2

[1] = system: E. coli: wp2[pKM101]+wp2 uvrA; experiment: Ames test, bacterial reverse mutation assay, E. coli; design: species or system Escherichia coli; conditions: 1011 and 1015 at 400 μM, mean ± SD, n = 3
Description: as §1, §2

[2] = system: S. typhimuium and E. coli; experiment: Bacterial reverse mutation test, all tested strains (summary); design: species or system Salmonella typhimuium and Escherichia coli; conditions: 400 μM
Description: The bacterial reverse mutation test uses amino acid requiring strains of Salmonella typhimuium and Escherichia coli (E. coli) to detect chemical substances that can produce genetic damage and lead to gene mutations. The mutagenic potential of 1011 and 1015 and their metabolites was assessed by exposing bacterial strains to the compounds and evaluating at 400 μM, and evaluating the numbers of revertant colonies grown in the absence (trace quantities) of the amino acid.
Ames test: According to the OECD Guidelines For Testing Of Chemicals, experiments with the tested agents, positive and negative controls, were conducted in triplicates on 6 tester strains, S. typhimurium: TA98, TA100, TA1535, TA1537 and E. coli: wp2[pKM101]+wp2 uvrA mixed 1:2. Dimethyl sulfoxide (DMSO) was used as the vehicle control for all tester strains in mutagenicity assay with and without metabolic activation. […]
The tester strain (10 μl of overnight culture) was mixed with the test agent (10 μl of the DMSO stock) and GM liquid medium (30 μl) or S9 mix (30 μl). […] The results were expressed as number of revertant colonies per plate. […]

Wnt/β-catenin signaling = Wnt/β-catenin signaling in human iPSC-derived neurons (Western blot, qPCR); format: cell-based
Description: Human iPSC-derived neurons were treated with 1015 (0.4 μM) for 48 h, and the mRNA levels of axin2 (B), neuroD1 (C) and SOX2 (D) were determined by qPCR. All the values are the average of three independent experiments with the SE values indicated by error bars. * P<0.05, ** P<0.01 verse corresponding control. (E) Human iPSC-derived neurons were treated with 1015 (0.4 μM) for 48 h, and the levels of phopspho-tau (p-tau) and total tau were determined by Western blotting with specific antibodies AT8 and HT7, respectively. This experiment is a representative of two such experiments performed with similar data.
NeuroD1, a proneural basic helix-loop-helix (bHLH) transcription factor, plays a critical role in CNS development, and is important for survival of neuronal progenitor cells. There is a TCF/LEF regulatory element in the Neurod1 promoter, and NeuroD1 is a specific target of Wnt/β-catenin signaling. […] In addition, 1015 also induces neural stem cell marker SOX2 expression in human iPSC-derived neurons ([…]). Importantly, 1015 suppresses tau phosphorylation in human iPSC-derived neurons (FIG. 16 at D).

[3] = with metabolic activation (S9 mix)

| SMILES | endogenous LRP6 expression (LRP6) | Number of revertant colonies per plate, TA 98 (S. typhimurium TA98; [3]) | Number of revertant colonies per plate, TA 98 (S. typhimurium TA98; without metabolic activation) | Number of revertant colonies per plate, TA1537 (S. typhimurium TA1537; [3]) | Number of revertant colonies per plate, TA1537 (S. typhimurium TA1537; without metabolic activation) | Number of revertant colonies per plate, E. coli [1, 3] | Number of revertant colonies per plate, E. coli ([1]; without metabolic activation) | mutagenic effects of test compounds and their metabolites [2] | NeuroD1 expression (mRNA) (Wnt/β-catenin signaling; 0.4 μM, 48 h) | Wnt specific target axin2 expression (mRNA) (Wnt/β-catenin signaling; 0.4 μM, 48 h) | neural stem cell marker SOX2 expression (mRNA) (Wnt/β-catenin signaling; 0.4 μM, 48 h) | Wnt co-receptor LRP6 level (Wnt/β-catenin signaling; 24 h) |
| --- | --- | --- | --- | --- | --- | --- | --- | --- | --- | --- | --- | --- |
| Nc1ccccc1NC(=O)c1ccc(C(=O)NCC2CCN2C2CCCC2)cn1 (centres unmarked) [Compound 1015] | significantly enhanced | 0.7 ± 1.2 revertant colonies per plate | 1.3 ± 1.5 revertant colonies per plate | 0.0 ± 0.0 revertant colonies per plate | 0.0 ± 0.0 revertant colonies per plate | 9.0 ± 2.7 revertant colonies per plate | 5.3 ± 4.7 revertant colonies per plate | no mutagenic effects | significantly enhances | increases | induces | enhances |
| CC1CCCC(C)N1CCNC(=O)c1ccc(C(=O)Nc2ccccc2N)nc1 (centres unmarked) [Compound 1011] | significantly enhanced | 1.7 ± 2.1 revertant colonies per plate | 1.7 ± 1.5 revertant colonies per plate | 0.0 ± 0.0 revertant colonies per plate | 0.7 ± 0.6 revertant colonies per plate | 9.7 ± 3.2 revertant colonies per plate | 8.7 ± 2.1 revertant colonies per plate | no mutagenic effects |  |  |  |  |
